Reference: patent publication US7763615B2, “Ecteinascidin analogs for use as antitumour agents” (priority 2001, dated 2010)
≈ marks a conversion by molar mass, not a printed value.

Experiments:
[1] = system: H9c2 (2-1), normal rat cardiac muscle cells; details: 24 h
physchem [2] = details: pH 7.4, aqueous buffer, Solubility Dulbecco's PBS pH 7.4
CYP3A4 = CYP3A4 (Homo sapiens, UniProt P08684); test: in vitro; details: CYP3A4 (% inhibition)
Procedure: For CYP3A4 inhibition assay, the compound were tested at 10 μM in duplicate with a 0.25% final concentration of both methanol and acetonitrile in presence of the fluorescent substrate BFC (50 μM). The conversion of the BFC (7-benzyloxy-4-trifluoromethylcoumarin) in HFC (7-hydroxy-4-trifluoromethylcoumarin) was determined spectro-fluormetry after incubation with the enzyme during 30 min at 37° C.
For both assays, the fluorescent intensity measured at t=0 is subtracted from that measured after the appropriate incubation time. The ratio of signal-to-noise is calculated by comparing the fluorescence in incubations containing the test compound to the control samples containing the same solvent vehicle. The percent of control activity is calculated and reported as percent inhibition.

HT29 = test: cells; type: cell-based; details: Homo sapiens, HT-29, 48 h; for GI50 / IC (TGI): HT29, 48 hours exposure, SRB; for CC50: read-out: LC50, HT29, 48 hours exposure, SRB
In short: (§1)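 Continuous 48 h drug exposure of attached human cancer cells (5×10^3/well, RPMI 1640, 10% FBS), doses 10 to 10^−8 μg/ml. Endpoint is SRB staining after TCA fixation, read at 490 nm. GI, TGI and LC calculated from triplicate means.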

MB231 = test: cells; type: cell-based; details: Homo sapiens
In short: as §1

A549 = test: cells; type: cell-based; details: Homo sapiens, A549, 48 h; for GI50 / IC (TGI): A549, 48 hours exposure, SRB; for GI50: read-out: GI50; for IC (TGI): read-out: TGI; for CC50: read-out: LC50, A549, 48 hours exposure, SRB
In short: as §1

SW-620 = test: cells; type: cell-based; details: Homo sapiens
In short: as §1

A498 = test: cells; type: cell-based; details: Homo sapiens
In short: as §1

DU145 = test: cells; type: cell-based; details: Homo sapiens, DU-145, 48 h; for GI50 / IC (TGI): DU145, 48 hours exposure, SRB; for CC50: read-out: LC50, DU145, 48 hours exposure, SRB
In short: as §1

MCF = test: cells; type: cell-based; details: Homo sapiens
In short: as §1

MEL-28 = test: cells; type: cell-based; details: Homo sapiens, SK-MEL-28, 48 h; for GI50 / IC (TGI): MEL-28, 48 hours exposure, SRB; for CC50: read-out: LC50, MEL-28, 48 hours exposure, SRB
In short: as §1

physchem [3] = details: pH 7.4, log D n-Octanol-Dulbecco's PBS pH 7.4
[4] = s9, 60 min, 1 μM
Procedure: The metabolic stability was determined used human liver S9 homogenate that including both microsomal and cytosolic enzyme activities. The test compound was diluted in methanol (0.625%) and acetonitrile (0.625%) at the concentration 1 μM and incubated in the human liver pool (protein=1 mg/mL) during 60 min at 37° C. Peak areas corresponding to all analytes (metabolic products) were determined by HPLC-MS/MS. Areas were recorded and ratios of peak areas of analytes to that of internal standard for each analyte were determined. The ratio of precursor compound remaining after 60 minutes and the amount remaining at time zero, expressed as percent, are reported as metabolic stability. Higher values mean higher metabolic stability.

[5] = system: L8, normal rat skeletal muscle cells; details: 24 h
[6] = system: FDC-P1, normal mouse myelogeous stem cells; details: 24 h
[7] = system: NRK-52E, normal rat kidney cells; details: 24 h
[8] = system: AML-12, normal mouse liver cells; details: 24 h
(HEPG2) = details: human, 24 h, 30 μM
Procedure: The toxic potential of compounds was investigated in vitro using primary human hepatocytes (HEPG2). The compounds were tested at 30 μM in duplicate with a final DMSO concentration of 1%. After incubation during 24 h at 37° C. the cell viability was determined by the conversion of oxided alarmarBlue (resazurin) to reduced alarmarBlue (resorufin). Chlorpromazine was used as reference compound. Results are expressed as a percent of inhibition of control values.

H-MEC-1 = test: Inhibition of cells growth by colorimetric assay (SRB), H-MEC-1; type: cell-based; details: Homo sapiens, HMEC-1, 48 h
In short: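 SRB colorimetric growth assay: 5×10^3 cells/well, 18 h attachment, 48 h continuous compound exposure at 10–10^−8 μg/ml in DMSO/EtOH/PBS. TCA fixation, SRB stain, OD 490 nm; triplicate wells, GI, TGI and LC derived.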

PANC-1 = test: cells; type: cell-based; details: Homo sapiens, PANC-1, 48 h
In short: as §1

LNCAP = test: cells; type: cell-based; details: Homo sapiens, LNCaP, 48 h
In short: as §1

LOVO = test: cells; type: cell-based; details: Homo sapiens, LoVo, 48 h
In short: as §1

SK-BR3 = test: cells; type: cell-based; details: Homo sapiens, SK-BR-3, 48 h
In short: as §1

IGROV-ET = test: cells; type: cell-based; details: Homo sapiens, 48 h
In short: as §1

LOVO-DOX = test: cells; type: cell-based; details: Homo sapiens, 48 h
In short: as §1

K562 = test: cells; type: cell-based; details: Homo sapiens, K562, 48 h
In short: as §1

IGROV = test: cells; type: cell-based; details: Homo sapiens, 48 h
In short: as §1

SK-OV3 = test: Inhibition of cells growth by colorimetric assay (SRB), SK-OV3; type: cell-based
Source text: The finality of these assays is to interrupt the growth of a “in vitro” tumor cell culture by means of a continued exhibition of the cells to the sample to be testing.
A colorimetric type of assay, using sulphorhodamine B (SRB) reaction has been adapted for a quantitative measurement of cell growth and viability [following the technique described by Philip Skehan, et al. (1990), New colorimetric cytotoxicity assay for anticancer drug screening, J. Natl. Cancer Inst., 82:1107-1112]
This form of the assay employs 96 well cell culture microplates of 9 mm diameter (Faircloth, 1988; Mosmann, 1983). Most of the cell lines are obtained from American Type Culture Collection (ATCC) derived from different human cancer types.
Cells are maintained in RPMI 1640 10% FBS, supplemented with 0.1 g/l penicillin and 0.1 g/l streptomycin sulphate and then incubated at 37° C., 5% CO2 and 98% humidity. For the experiments, cells were harvested from subconfluent cultures using trypsin and resuspended in fresh medium before plating.
Cells are seeded in 96 well microtiter plates, at 5×10^3 cells per well in aliquots of 195 μl medium, and they are allowed to attach to the plate surface by growing in drug free medium for 18 hours. Afterward, samples are added in aliquots of 5 μl in a ranging from 10 to 10^−8 μg/ml, dissolved in DMSO/EtOH/PBS (0.5:0.5:99). After 48 hours exposure, the antitumor effect are measured by the SRB methodology: cells are fixed by adding 50 μl of cold 50% (wt/vol) trichloroacetic acid (TCA) and incubating for 60 minutes at 4° C. Plates are washed with deionized water and dried. One hundred μl of SRB solution (0.4% wt/vol in 1% acetic acid) is added to each microtiter well and incubated for 10 minutes at room temperature. Unbound SRB is removed by washing with 1% acetic acid. Plates are air dried and bound stain is solubilized with Tris buffer. Optical densities are read on a automated spectrophotometric plate reader at a single wavelength of 490 nm.
The values for mean+/− SD of data from triplicate wells are calculated. Some parameters for cellular responses can be calculated: GI=growth inhibition, TGI=total growth inhibition (cytostatic effect) and LC=cell killing (cytotoxic effect).

[9] = H-MEC-1, 48 hours exposure, SRB
[10] = IGROV-ET, 48 hours exposure, SRB
[11] = LOVO-DOX, 48 hours exposure, SRB

Sequence of CYP3A4 (P08684 whole entry): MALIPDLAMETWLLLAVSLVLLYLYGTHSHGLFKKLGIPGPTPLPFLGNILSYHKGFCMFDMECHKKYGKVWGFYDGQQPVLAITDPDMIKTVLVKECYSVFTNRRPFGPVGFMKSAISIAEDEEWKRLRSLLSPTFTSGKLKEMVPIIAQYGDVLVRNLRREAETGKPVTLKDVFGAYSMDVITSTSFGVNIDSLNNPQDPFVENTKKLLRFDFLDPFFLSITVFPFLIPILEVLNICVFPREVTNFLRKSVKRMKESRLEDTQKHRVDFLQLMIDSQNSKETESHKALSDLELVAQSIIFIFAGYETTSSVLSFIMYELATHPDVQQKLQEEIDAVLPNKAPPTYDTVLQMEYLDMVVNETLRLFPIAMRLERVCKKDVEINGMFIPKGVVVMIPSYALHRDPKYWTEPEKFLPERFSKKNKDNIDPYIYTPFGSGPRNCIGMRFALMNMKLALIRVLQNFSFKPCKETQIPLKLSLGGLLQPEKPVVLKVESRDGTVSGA

## COc1c(C)cc2c(c1O)[C@@H]1C3[C@@H]4SC[C@]5(NCCc6c5[nH]c5ccc(C)cc65)C(=O)COC[C@@H](c5c6c(c(C)c(OC(C)=O)c54)OCO6)N3[C@@H](O)[C@H](C2)N1C (stereo partly shown) [Compound 30]
[1]
  Heart: 5.06E−07
Physchem [2]
  solubility: 2.24 µM (≈ 1.75 µg/mL)
CYP3A4
  inhibition at 30 min, 10 µM: 25%
HT29
  GI50: 0.104 nM
  IC (TGI): 0.39 nM
  CC50: 1.04 nM
MB231; 48 h, read-out: LC50
  CC50: 3.9 nM
MB231; MB231, 48 hours exposure, SRB
  GI50: 0.0026 nM
MB231; MB231, 48 hours exposure, SRB, read-out: TGI
  IC (TGI): 0.13 nM
A549
  GI50: 0.039 nM
  IC (TGI): 0.26 nM
  CC50: 1.04 nM
SW-620; SW-620, 48 h, read-out: LC50
  CC50: 1.3 nM
SW-620; SW-620, 48 hours exposure, SRB
  IC (TGI): 0.39 nM
SW-620; SW-620, 48 hours exposure, SRB, read-out: GI50
  GI50: 0.026 nM
A498; A498, 48 h, read-out: LC50
  CC50: 2.6 nM
A498; A498, 48 hours exposure, SRB
  GI50: 0.13 nM
  IC (TGI): 0.52 nM
DU145
  GI50: 0.013 nM
  IC (TGI): 0.039 nM
  CC50: 0.13 nM
MCF; 48 h, read-out: LC50
  CC50: 2.6 nM
MCF; MCF, 48 hours exposure, SRB
  GI50: 0.26 nM
MCF; MCF, 48 hours exposure, SRB, read-out: TGI
  IC (TGI): 0.39 nM
MEL-28
  GI50: 0.026 nM
  IC (TGI): 0.13 nM
  CC50: 0.65 nM
Physchem [3]
  logD at 60 min: > 4.9
[4]
  Human Liver S9 Metabolic Stability (% remaining): 6 % remaining
[5]
  Skeletal: 2.51E−08
[6]
  Myelo: 7.58E−09
[7]
  Kidney: 4.19E−09
[8]
  Liver: 2.72E−07

## COc1c(C)cc2c(c1O)[C@@H]1C3[C@@H]4SC[C@]5(NCCc6c5[nH]c5ccc(F)cc65)C(=O)COC[C@@H](c5c6c(c(C)c(OC(C)=O)c54)OCO6)N3[C@@H](O)[C@H](C2)N1C (stereo partly shown) [Compound 35]
[1]
  Heart: 1.93E−08
(HEPG2)
  Cell Viability (% inhibition): 23 % inhibition
Physchem [2]
  solubility: < 1 µM
H-MEC-1; [9]
  GI50: 2.6 nM
  IC (TGI): 30.4 nM
H-MEC-1; read-out: LC50, H-MEC-1, 48 hours exposure, SRB
  CC50: 12900 nM
CYP3A4
  inhibition at 30 min, 10 µM: 24%
PANC-1; PANC-1, 48 hours exposure, SRB
  GI50: 4.52 nM
  IC (TGI): 42.1 nM
PANC-1; read-out: LC50, PANC-1, 48 hours exposure, SRB
  CC50: 12900 nM
HT29
  GI50: 4.19 nM
  IC (TGI): 13.2 nM
  CC50: 12900 nM
LNCAP; 48 hours exposure, SRB
  GI50: 0.816 nM
  IC (TGI): 2.5 nM
LNCAP; read-out: LC50, LNCAP, 48 hours exposure, SRB
  CC50: 7.48 nM
A549
  GI50: 3.03 nM
  IC (TGI): 7.65 nM
  CC50: 4090 nM
LOVO; 48 hours exposure, SRB
  GI50: 2.26 nM
  IC (TGI): 5.68 nM
LOVO; read-out: LC50, LOVO, 48 hours exposure, SRB
  CC50: 12.9 nM
SK-BR3; SK-BR3, 48 hours exposure, SRB
  GI50: 2.21 nM
  IC (TGI): 6.55 nM
SK-BR3; read-out: LC50, SK-BR3, 48 hours exposure, SRB
  CC50: 1090 nM
IGROV-ET; [10]
  GI50: 5.53 nM
  IC (TGI): 23.5 nM
IGROV-ET; read-out: LC50, IGROV-ET, 48 hours exposure, SRB
  CC50: 12900 nM
LOVO-DOX; [11]
  GI50: 26.8 nM
  IC (TGI): 124 nM
LOVO-DOX; read-out: LC50, LOVO-DOX, 48 hours exposure, SRB
  CC50: 12900 nM
K562; K562, 48 hours exposure, SRB
  GI50: 1.14 nM
  IC (TGI): 2.67 nM
K562; read-out: LC50, K562, 48 hours exposure, SRB
  CC50: 10.2 nM
DU145
  GI50: 3.83 nM
  IC (TGI): 12 nM
  CC50: 12900 nM
IGROV; 48 hours exposure, SRB
  GI50: 3.45 nM
  IC (TGI): 7.72 nM
IGROV; read-out: LC50, IGROV, 48 hours exposure, SRB
  CC50: 3380 nM
MEL-28
  GI50: 2.78 nM
  IC (TGI): 7.16 nM
  CC50: 47 nM
Physchem [3]
  logD at 60 min: > 5
[4]
  Human Liver S9 Metabolic Stability (% remaining): 4 % remaining
[5]
  Skeletal: 3.07E−08
[6]
  Myelo: 4.08E−08
[7]
  Kidney: 3.42E−08
[8]
  Liver: 4.88E−08
SK-OV3; Homo sapiens, SK-OV-3, 48 h, SK-OV3, 48 hours exposure, SRB
  GI50: 4.37 nM
SK-OV3; Homo sapiens, SK-OV-3, 48 h, read-out: LC50, SK-OV3, 48 hours exposure, SRB
  CC50: 12900 nM
SK-OV3; SK-OV3, 48 hours exposure, SRB
  TGI: 1.46E−08 Molar
